Measurements taken from US20230391868A1, “COMPOSITIONS FOR AND METHODS OF TREATING CANCER” (The George Washington University, priority 2022, published 2023).

What was measured:
WM164 melanoma cells = assay: Flow cytometry-based phagocytosis assay, THP1-derived macrophages with WM164 cells; type: cell-based, human; conditions: co-culture with WM164 melanoma cells (FIG. 4J)
SIRPα = SIRPα gene expression in mouse macrophages by qRT-PCR; type: cell-based; conditions: A31A7 macrophages and BMDMs, unpolarized and polarized, qRT-PCR (FIG. 2A)
Protocol: Bone marrow-derived macrophages were isolated from the femurs and tibias of wild-type C57/Bl6, HDAC6 knockout (C57BL/6J-Hdac6em2Lutzy/J, 029318, Jackson Laboratory), or UBC-GFP (C57BL/6-Tg(UBC-GFP)30Scha/J, 004353, Jackson Laboratory). Isolated bone marrow cells were cultured in RPMI 1640 complete medium with 10% FBS, 1% NEAA, and 1% penicillin-streptomycin in 5% CO2 at 37° C. Medium was supplemented with murine recombinant M-CSF (20 ng/mL, 576404, Biolegend) to differentiate monocytes into macrophages. Three days after bone marrow isolation, undifferentiated and floating cells were washed with PBS and replaced with fresh RPMI media. A3.1A7 cells and BMDMs were pretreated with 5 μM of HDAC6 inhibitor NextA or vehicle prior to adding polarizing cytokines. […]
qRT-PCR: Total RNA was extracted from cells using the Trizol reagent according to manufacturer's instructions (ThermoFisher Scientific, 15596018). […] RNA was quantified using a NanoDrop One Spectrophotometer (ThermoFisher Scientific). […] Target mRNA was quantified using MyIQ single-color real-time PCR detection system from Bio-Rad (Bio-Rad, Hercules, CA) and iQ SYBR green Supermix (Bio-Rad, 1708882). […] Quantification is expressed in arbitrary units and target mRNA levels were normalized to R-actin expression.

SM1 melanoma cells = assay: Cd47 mRNA upon IFNγ stimulation in SM1 cells; type: cell-based, mouse; conditions: IFNγ for 12 hours
Protocol: qRT-PCR: Total RNA was extracted from cells using the Trizol reagent according to manufacturer's instructions (ThermoFisher Scientific, 15596018). Samples were then processed immediately or stored at −80° C. RNA was quantified using a NanoDrop One Spectrophotometer (ThermoFisher Scientific). The 260/280 ratios were routinely over 1.8. Sample cDNA was produced using the iScript cDNA synthesis kit (Bio-Rad, 1708891). Target mRNA was quantified using MyIQ single-color real-time PCR detection system from Bio-Rad (Bio-Rad, Hercules, CA) and iQ SYBR green Supermix (Bio-Rad, 1708882). The following primers were synthesized by Invitrogen (Waltham, MA) with sequences designed by Origene (Rockville, MD): mouse R-actin (MP200232), mouse Nos2 (MP208933), mouse MRC1 (MP207800), human R-actin (HP204660), human IL-1β (HP200544), human MRC1 (HP206121), human NOS2 (HP200591), human CD209 (HP214086), mouse SIRPα (MP215450), mouse LRP1 (MP207604), human LRP1 (HP206040), mouse MFGE8 (MP208190), human MFGE8 (HP225757), mouse CD36 (MP201923), human CD36 (HP200058), and mouse CD47 (MP201932). Primers for mouse ARG-1 (PPM31770C) and human SIRPα (QT01031051) were purchased from Qiagen (Hilden, Germany). […] Quantification is expressed in arbitrary units and target mRNA levels were normalized to R-actin expression.
Although the mechanism by which IFNγ drives CD47 upregulation is unclear, IFNγ expression correlates to CD47 expression in skin cutaneous melanoma (Ye Z H, et al. (2021) Transl. Oncol. 14:101162). The kinetics of Cd47 mRNA in SM1 and B16 cells upon IFNγ stimulation (100 ng/mL) were evaluated and these mouse melanoma models were determined to have different kinetics (FIG. 9A-FIG. 9B). It was determined that 12 hours was a time point for both models to sustain the IFNγ-mediated upregulation. In FIG. 9B, the role of HDAC6 inhibitors NextA and Tubastatin A in abrogating Cd47 upregulation upon stimulation with IFNγ for 12 hours was evaluated.

CCCCN(Cc1ccc(C(=O)NO)cc1)C(=O)Nc1ccccc1 [NextA, Nexturastat A]
phagocytosis by unpolarized THP-1 derived macrophages (WM164 melanoma cells): significantly more phagocytic | Sirpa expression at the transcriptional level (SIRPα): significantly downregulated | Sirpa expression at the transcriptional level (SIRPα; listed as Nexturastat A): downregulated | IFNγ-driven Cd47 upregulation at the transcriptional level (SM1 melanoma cells): repressed these effects
